Structures are written as SMILES.

Consider three compounds from paper PMC5668434, “Modulation of telomere protection by the PI3K/AKT pathway” (Nature Communications, 2017).

Data set [1] relates to PI3Kβ. The conditions noted are these: reported in literature; cited from earlier work.
For data set [2], the system named is TRF1 mRNA in CHA 9-3 lung cancer cells. The data set is described as follows: TRF1 mRNA by qPCR. In kind it is cell-based, mouse. The note with it: 10 μM, 24 h.
Data set [3] relates to PI3Kδ. The note with it: reported in literature; cited from earlier work.
The subject of data set [4] is PI3Kγ. The conditions noted are these: reported in literature; cited from earlier work.
The test system of data set [5] is CHA-9.3 cell line. The data set is described as follows: Cytotoxicity in CHA-9.3 cells. Type of data set: cell-based, mouse. The conditions noted are these: 10 μM.
For data set [6], the system named is mTOR 2. The conditions noted are these: reported in literature; cited from earlier work.
Data set [7] concerns mTOR 1. The conditions noted are these: reported in literature; cited from earlier work.
For data set [8], the system named is PI3Kα. The conditions noted are these: reported in literature; cited from earlier work.
The test system of data set [9] is p-AKT S473 in CHA-9.3 mouse lung cancer cell line. The experiment in a line: Western blot of AKT phosphorylation at Ser473 in CHA-9.3 cells. In kind it is cell-based. The conditions noted are these: 10 μM (GSK-2126458 1.0 μM), 24 h. On the procedure: These new chemical probes were prepared by replacement of a single key oxygen atom from the morpholine moiety by a methylene group, generating the piperidine derivatives ETP-51259 and ETP-50952 (Fig. 1a). To assess their PI3K cellular activity, we measured phosphorylation of residue Ser473 in AKT (p-AKT S473), a PI3K downstream target[61]–[63], by western blot analysis. To this end, we used the CHA-9.3 mouse lung cancer cell line previously generated by us[39]. […] Of note, the inhibitory activity of ETP-47037 was more prolonged than that of ETP-47228. Thus, ETP-47037 mediated p-AKT S473 inhibition was maintained during the 24-hour treatment while the ETP-47228 mediated inhibition decreased 35% after 24 h as compared to 1-h treatment but still was able to inhibit the pathway above 50% (Fig. 1c).
For detection of AKT, PRAS40 (T246) and pS6 in CHA9.3 cells, untreated control (DMSO) or treated with the indicated inhibitors, were lysed in RIPA buffer supplemented with 100 mM pefablock (Roche Diagnostics) and protease inhibitor cocktail (Roche Molecular Biochemicals). Proteins were resolved on 10% SDS-PAGE, and transferred to nitrocellulose membrane (Amersham^TM Protan^TM 0.2 µm nNC). Membranes were incubated with antibodies against phospho-AKT (Ser473), AKT, phospo-S6 (Ser 235/236), and S6Ribosomal from Cell Signaling, phospo-PRAS40 (Thr246) from BIOSURCE and anti α-tubulin form Sigma, overnight at 4 °C. After washing, blots were incubated with secondary antibody: Alexa Fluor 680 goat anti-rabbit IgG (Invitrogen) or anti-mouse IgG DyLight 800 conjugated (Thermo Scientific), and visualized using an Odyssey infrared imaging system (Li-Cor Biosciences).

For data set [10], the system named is TRF1 protein in p53−/− MEFs nuclear extracts. The experiment in a line: Western blot of nuclear TRF1 in p53−/− MEFs. In kind it is cell-based, mouse. The note with it: 10 μM. On the procedure:
(§1) Blots were incubated with the primary antibodies anti-TRF1 1:500 (home-made monoclonal Rat, CNIO; TRF-78, ABCAM, ab10579) and with anti-SMC1 1:2000 (Bethyl Laboratories #A300-055A) as loading control. For nuclear protein preparation, the Nuclear/Cytosol Fractionation Kit (K266-100, BioVision) was used according to the manufactures protocol.

Data set [11] relates to TRF1 foci in p53−/− mouse embryo fibroblasts (MEF). The experiment in a line: TRF1 foci immunofluorescence in p53−/− MEFs. The note with it: 10 μM, 24 h. Type of data set: cell-based. On the procedure: We then checked whether PI3Kα/AKT inhibition also leads to decreased TRF1 foci in an additional cell type to CHA-9.3 cells. Thus, we used p53 ^−/− mouse embryo fibroblasts (MEF). We treated these MEFs either with the AKT inhibitor MK-2206 or with ETP-47037 at 10 μM concentration for 24 h and analyzed TRF1 foci by immunofluorescence.
(§2) TRF1 immunofluorescence of TRF1 was performed in lung tumor-derived cell line (CHA9.3) and in MEFs[39]. A rat monoclonal antibody against mouse TRF1 developed by the Monoclonal antibody unit at CNIO was used to detect endogenous TRF1 (1:500). GFP-TRF1 fluorescence was directly measured in cells fixed in paraformaldehyde. For quantification of TRF1 foci intensity, pictures of fixed cells were automatically acquired from each well by the Opera HCS system (Perkin Elmer). Sixty images of random fields per well, with a 40× magnification lens, were taken under non-saturating conditions. At least 1 × 10^3 cells were analyzed for each well. Briefly, images were segmented using the DAPI staining to generate masks matching cell nuclei from which-TRF1 foci were analyzed.

For data set [12], the target named is T1, PI3K (p110α) (Homo sapiens, UniProt P42336).
T1 construct: purchased Cama Biosciences (sic; Carna Biosciences) #07CBS-0402A
T1 sequence (P42336 whole entry): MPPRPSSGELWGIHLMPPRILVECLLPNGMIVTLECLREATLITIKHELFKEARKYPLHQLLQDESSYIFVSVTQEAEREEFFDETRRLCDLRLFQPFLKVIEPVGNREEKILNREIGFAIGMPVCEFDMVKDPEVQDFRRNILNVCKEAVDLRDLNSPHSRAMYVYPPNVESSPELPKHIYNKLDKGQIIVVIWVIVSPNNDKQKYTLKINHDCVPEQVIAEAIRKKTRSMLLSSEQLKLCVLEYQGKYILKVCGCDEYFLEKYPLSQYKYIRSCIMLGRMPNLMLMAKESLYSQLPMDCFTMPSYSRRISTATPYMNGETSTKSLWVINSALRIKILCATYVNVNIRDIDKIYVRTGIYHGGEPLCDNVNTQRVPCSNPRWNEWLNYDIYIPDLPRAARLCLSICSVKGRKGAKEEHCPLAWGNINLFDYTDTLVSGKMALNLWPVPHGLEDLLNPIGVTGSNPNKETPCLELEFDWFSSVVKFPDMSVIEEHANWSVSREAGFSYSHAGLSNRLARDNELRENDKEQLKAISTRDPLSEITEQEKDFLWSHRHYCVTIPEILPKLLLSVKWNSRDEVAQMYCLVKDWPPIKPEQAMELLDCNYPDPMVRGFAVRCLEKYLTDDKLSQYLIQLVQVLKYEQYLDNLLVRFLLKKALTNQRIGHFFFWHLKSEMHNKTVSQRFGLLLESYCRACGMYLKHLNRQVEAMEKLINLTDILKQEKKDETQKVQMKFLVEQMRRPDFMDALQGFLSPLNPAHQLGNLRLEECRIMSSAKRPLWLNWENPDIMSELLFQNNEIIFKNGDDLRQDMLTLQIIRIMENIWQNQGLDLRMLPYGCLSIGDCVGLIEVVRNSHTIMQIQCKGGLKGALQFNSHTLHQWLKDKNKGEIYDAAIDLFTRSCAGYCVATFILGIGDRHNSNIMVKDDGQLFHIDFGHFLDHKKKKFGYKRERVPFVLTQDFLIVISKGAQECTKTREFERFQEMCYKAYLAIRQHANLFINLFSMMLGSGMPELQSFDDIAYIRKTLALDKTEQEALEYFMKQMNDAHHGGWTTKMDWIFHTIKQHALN
T1 sequence (P27986 whole entry partner): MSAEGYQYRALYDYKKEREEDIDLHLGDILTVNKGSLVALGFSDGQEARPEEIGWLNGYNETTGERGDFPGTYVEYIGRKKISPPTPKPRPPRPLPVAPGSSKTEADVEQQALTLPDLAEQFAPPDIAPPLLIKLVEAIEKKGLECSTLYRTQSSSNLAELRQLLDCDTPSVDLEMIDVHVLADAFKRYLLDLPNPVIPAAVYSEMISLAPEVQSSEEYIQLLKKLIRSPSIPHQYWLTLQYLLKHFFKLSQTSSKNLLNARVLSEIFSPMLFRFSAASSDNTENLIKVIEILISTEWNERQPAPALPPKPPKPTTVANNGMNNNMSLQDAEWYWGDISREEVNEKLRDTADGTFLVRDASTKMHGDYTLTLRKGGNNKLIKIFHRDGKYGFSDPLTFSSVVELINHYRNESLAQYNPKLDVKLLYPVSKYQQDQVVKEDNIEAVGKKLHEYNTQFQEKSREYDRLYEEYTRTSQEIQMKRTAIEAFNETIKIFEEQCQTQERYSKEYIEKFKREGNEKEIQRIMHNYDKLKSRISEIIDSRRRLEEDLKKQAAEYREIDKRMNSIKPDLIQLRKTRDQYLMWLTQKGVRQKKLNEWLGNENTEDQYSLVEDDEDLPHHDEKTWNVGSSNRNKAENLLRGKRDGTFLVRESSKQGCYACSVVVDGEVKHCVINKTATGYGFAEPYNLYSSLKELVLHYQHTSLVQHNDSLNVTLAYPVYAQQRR
The experiment in a line: PI3K alpha biochemical assay (ADP Hunter Plus). The note with it: internal data; read-out: PI3Kα IC50.

In data set [13] the target is T2, mTOR (FRAP1) (Homo sapiens, UniProt P42345).
T2 construct: purchased ThermoFisher PV4753
T2 sequence (P42345 1360-2549 limits assumed): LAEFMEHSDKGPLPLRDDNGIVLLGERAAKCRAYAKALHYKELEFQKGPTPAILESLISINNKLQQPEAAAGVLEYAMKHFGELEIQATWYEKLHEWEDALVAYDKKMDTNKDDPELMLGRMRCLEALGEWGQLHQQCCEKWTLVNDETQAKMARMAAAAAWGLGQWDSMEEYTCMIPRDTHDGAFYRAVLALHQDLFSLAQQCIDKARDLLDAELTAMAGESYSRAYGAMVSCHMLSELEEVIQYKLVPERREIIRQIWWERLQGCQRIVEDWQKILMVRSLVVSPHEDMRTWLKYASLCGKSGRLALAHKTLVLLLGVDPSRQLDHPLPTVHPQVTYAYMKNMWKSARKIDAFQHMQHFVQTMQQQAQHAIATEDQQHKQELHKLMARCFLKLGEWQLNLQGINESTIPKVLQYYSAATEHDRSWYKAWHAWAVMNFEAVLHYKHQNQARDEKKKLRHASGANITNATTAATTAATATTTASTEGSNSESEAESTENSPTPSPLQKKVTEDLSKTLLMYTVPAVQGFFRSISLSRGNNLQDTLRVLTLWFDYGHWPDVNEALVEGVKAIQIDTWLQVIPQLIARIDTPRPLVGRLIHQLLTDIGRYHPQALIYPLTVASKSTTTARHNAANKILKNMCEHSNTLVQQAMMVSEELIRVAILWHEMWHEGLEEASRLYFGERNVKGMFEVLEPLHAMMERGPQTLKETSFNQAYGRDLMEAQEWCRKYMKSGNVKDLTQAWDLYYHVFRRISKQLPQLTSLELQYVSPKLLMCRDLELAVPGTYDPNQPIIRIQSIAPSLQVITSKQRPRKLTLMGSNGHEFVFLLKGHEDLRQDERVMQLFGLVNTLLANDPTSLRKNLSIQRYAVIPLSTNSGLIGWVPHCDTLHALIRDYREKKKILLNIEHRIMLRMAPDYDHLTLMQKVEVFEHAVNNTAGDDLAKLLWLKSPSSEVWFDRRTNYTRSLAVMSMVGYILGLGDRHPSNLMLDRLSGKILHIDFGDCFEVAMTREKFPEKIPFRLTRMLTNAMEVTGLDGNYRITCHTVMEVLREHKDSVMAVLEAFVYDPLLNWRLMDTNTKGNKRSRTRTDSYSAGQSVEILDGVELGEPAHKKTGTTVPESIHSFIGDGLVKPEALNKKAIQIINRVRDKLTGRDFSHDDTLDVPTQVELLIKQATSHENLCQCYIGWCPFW
The data set is described as follows: mTOR biochemical assay (LanthaScreen). The note with it: internal data.

Data set [14] deals with Akt2. Also noted: method as in earlier work. The conditions noted are these: reported in literature; read-out: Reported data IC50 Akt 2; cited from earlier work.
Data set [15] deals with Akt1. Also noted: method as in earlier work. The conditions noted are these: reported in literature; read-out: Reported data IC50 Akt 1; cited from earlier work.
Data set [16] deals with TRF1 foci in CHA-9.3 mouse lung tumor cell line. The experiment in a line: TRF1 foci immunofluorescence in CHA-9.3 cells. Type of data set: cell-based. On the procedure: as §2
Data set [17] concerns the target T3, human AKT1 (Homo sapiens, UniProt P31749).
T3 construct: purchased ProQinase 1379-0000-2
The experiment in a line: In vitro TRF1 phosphorylation by AKT1. Type of data set: biochemical. The conditions noted are these: MK-2206 25 μM. The procedure:
To address whether TRF1 is a direct substrate of AKT, affinity purified GST-TRF1 was incubated with purified human AKT1 (1379-0000-2, ProQinase) in the presence of γ-^32ATP. As positive control, a GSK3 (14-27) peptide (0349-0000-5, prokinase) was also used as substrate. AKT1 yielded a TRF1 phosphorylation signal after incubation with purified GST-TRF1 during 1 h, which was decreased in the presence of AKT inhibitor (see asterisk in Fig. 5a, left). AKT1 also yielded a phosphorylation signal in the positive control peptide GSK3 (14-27) that was reduced in the presence of AKT inhibitor (Fig. 5a, right). An autophospholyration activity of AKT1 was detected after 1 h of incubation and this activity was reduced in the presence of AKT inhibitor (Fig. 5a). Together, these findings indicate that TRF1 is a direct substrate of AKT1.
One μg of purified GST-TRF1 was incubated with 0.2 μg of human GST-AKT1 (1379-0000-2, ProQinase) with or without AKT inhibitor (MK-2206, 25 μM) in kinase buffer (50 mM Hepes pH 7.9, 100 μM ATP, 10 mM MgCl2, 5 mM DTT) containing 5 μCi [γ-^32-P]ATP in a total volume of 25 μl. The peptide RBER-GSK3(14-27) (0349-0000-5, ProQinase) (100 ng) was used as positive control. The reactions were performed at 30 °C for […] and stopped by addition of Lamely buffer (6×). Samples were resolved in 4–12% SDS-PAGE gels and subjected to autoradiography.

Data set [18] concerns TRF1 protein in CHA 9-3 nuclear extracts. The experiment in a line: Western blot of nuclear TRF1 in CHA 9-3 cells. The conditions noted are these: 10 μM. In kind it is cell-based, mouse. On the procedure:
as §1

Data set [19] concerns Akt3. On the set-up: method as in earlier work. The note with it: reported in literature; read-out: Reported data IC50 Akt 3; cited from earlier work.
Data set [20] has as its system CHA 9-3 cells. The experiment in a line: Multitelomeric signals (MTS) by Q-FISH on metaphase spreads. In kind it is cell-based, mouse. The note with it: 10 μM, 24 h. The text has this: Trf1 abrogation is known to lead to a persistent DDR at telomeres, and to induction of telomere-induced chromosomal aberrations[28]–[30]. Trf1 genetic deletion induces the so-called multitelomeric signals (MTS), a chromosomal aberration related to increased telomere fragility during DNA replication, [29]. […] To this end, we treated CHA 9-3 cells with either DMSO, the AKT inhibitor MK-2206 (AKTi) and the PI3K inhibitors ETP-47037 or ETP-47228. For detection of MTS, we performed quantitative fluorescence in situ hybridization (Q-FISH) analysis on metaphase spreads using a telomeric probe to visualize telomeres (“Methods” section). MTS are visualized by presenting a multi-dot pattern at chromosome ends in contrast to normal telomeres that show a single dot at each chromosome end.
Lung cancer-derived cell line (CHA-9-3) and immortalized P110α ^lox/lox MEFS were treated either with 10 µM of ETP-47037, ETP-47228, or AKTi (MK-2206) for 24 h. Q-FISH in metaphase spreads was performed as described above, but increasing the concentration of formamide in both the incubation and the washes to 70%.

T3 sequence (P31749 whole entry): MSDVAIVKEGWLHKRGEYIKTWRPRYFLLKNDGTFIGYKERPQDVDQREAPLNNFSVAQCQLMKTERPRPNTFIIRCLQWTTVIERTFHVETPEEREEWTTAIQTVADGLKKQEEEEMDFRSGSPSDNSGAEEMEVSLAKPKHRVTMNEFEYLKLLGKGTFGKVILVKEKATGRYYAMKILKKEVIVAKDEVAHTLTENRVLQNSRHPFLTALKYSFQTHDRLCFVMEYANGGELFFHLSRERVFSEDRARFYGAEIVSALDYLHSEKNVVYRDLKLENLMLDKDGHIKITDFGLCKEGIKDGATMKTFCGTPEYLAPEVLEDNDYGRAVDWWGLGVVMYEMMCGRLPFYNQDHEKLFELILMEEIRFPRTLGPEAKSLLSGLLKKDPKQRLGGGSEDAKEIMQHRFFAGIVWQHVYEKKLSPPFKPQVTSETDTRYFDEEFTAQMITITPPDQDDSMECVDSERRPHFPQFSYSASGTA

On to `CS(=O)(=O)N1CCN(Cc2cc3nc(-c4cccc5[nH]ncc45)nc(N4CCOCC4)c3s2)CC1` [GDC-0941, 2-(1H-indazol-4-yl)-6-(4-methanesulfonyl-piperazin-1-ylmethyl)-4-morpholin-4-yl-t hieno[3,2-d]pyrimidine], for which the results for the IC50 in [1], in [3] and in [4] were […], […] and […], respectively. In addition, in [2], the “TRF1 mRNA levels” value is given as “None of the inhibitors significantly affected”.

For the compound `COc1ncc(-c2ccc3nccc(-c4ccnnc4)c3c2)cc1NS(=O)(=O)c1ccc(F)cc1F` [GSK-2126458], the Cytotoxicity result in data set [5] was “high cytotoxicity”. Moreover, the IC50 is 0.3 nM in [6]; […] in data set [1]; 0.18 nM in data set [7]; […] in [8]; […] in data set [3]; […] in data set [4].

`NC1(c2ccc(-c3nc4ccn5c(=O)[nH]nc5c4cc3-c3ccccc3)cc2)CCC1` [MK-2206, reference compound]: the “Phosphorylation of AKT (p-AKT S473) (in words)” value in data set [9] is given as “strong inhibition”. In data set [10], the “Total nuclear TRF1 levels compared to DMSO” value was “decreased”. Moreover, the “Reduction in TRF1 foci intensity” value in data set [11] is 22%. For the same compound, the IC50 was 34.3 nM in data set [12]; greater than 10000 nM in [13]; 12 nM in data set [14]; 8 nM in data set [15]; 65 nM in data set [19]. Moreover, in [16] (10 μM (GSK-2126458 1.0 μM), 24 h, CHA-9.3), the “Inhibition of TRF1 foci (in words)” value was “effectively inhibited TRF1 foci”. In [16] (10 μM plus bortezomib 50 nM, CHA 9-3), the “TRF1 levels as compared to bortezomib/DMSO-treated control cells” value is reported as “significantly lower”. For the same compound, the “TRF1 mRNA levels” value in [2] is “None of the inhibitors significantly affected”. Also, the “Autophosphorylation activity of AKT1” value in [17] (1 h) is on record as “reduced”. Besides, the “Phosphorylation signal of control peptide GSK3 (14-27) by AKT1” value in data set [17] is “reduced”. In addition, the “TRF1 phosphorylation signal by AKT1” value in [17] (purified GST-TRF1, 1 h) is on record as “decreased”. In data set [18], the “TRF1 protein levels in nuclear extracts” value is given as “significantly decreased”. For the same compound, the “Frequency of MTS events per metaphase compared to DMSO” value in data set [20] was “significantly increased”.
